US20240246948A1, “BENZAMIDE DERIVATIVE, METHOD FOR PREPARING SAME, AND PHARMACEUTICAL COMPOSITION FOR PREVENTION OR TREATMENT OF CANCER CONTAINING SAME AS ACTIVE INGREDIENT” (HK INNO.N CORPORATION, priority 2021, published 2024)

Columns and labels:
[1] = target: Ba/F3 EGFR L858R/T790M (LT) (Homo sapiens, UniProt P00533, T790M/L858R, cells depend on it); assay: Cell growth inhibitory ability in Ba/F3 cells overexpressing EGFR L858R/T790M (MTS, CellTiter 96 AQueous); type: cell-based; conditions: 72 hours, MTS absorbance at 490 nm, read-out: Ba/F3 EGFR double mutant L858R/T790M, IC50
Chain of Ba/F3 EGFR L858R/T790M (LT) (P00533 whole entry T790M/L858R): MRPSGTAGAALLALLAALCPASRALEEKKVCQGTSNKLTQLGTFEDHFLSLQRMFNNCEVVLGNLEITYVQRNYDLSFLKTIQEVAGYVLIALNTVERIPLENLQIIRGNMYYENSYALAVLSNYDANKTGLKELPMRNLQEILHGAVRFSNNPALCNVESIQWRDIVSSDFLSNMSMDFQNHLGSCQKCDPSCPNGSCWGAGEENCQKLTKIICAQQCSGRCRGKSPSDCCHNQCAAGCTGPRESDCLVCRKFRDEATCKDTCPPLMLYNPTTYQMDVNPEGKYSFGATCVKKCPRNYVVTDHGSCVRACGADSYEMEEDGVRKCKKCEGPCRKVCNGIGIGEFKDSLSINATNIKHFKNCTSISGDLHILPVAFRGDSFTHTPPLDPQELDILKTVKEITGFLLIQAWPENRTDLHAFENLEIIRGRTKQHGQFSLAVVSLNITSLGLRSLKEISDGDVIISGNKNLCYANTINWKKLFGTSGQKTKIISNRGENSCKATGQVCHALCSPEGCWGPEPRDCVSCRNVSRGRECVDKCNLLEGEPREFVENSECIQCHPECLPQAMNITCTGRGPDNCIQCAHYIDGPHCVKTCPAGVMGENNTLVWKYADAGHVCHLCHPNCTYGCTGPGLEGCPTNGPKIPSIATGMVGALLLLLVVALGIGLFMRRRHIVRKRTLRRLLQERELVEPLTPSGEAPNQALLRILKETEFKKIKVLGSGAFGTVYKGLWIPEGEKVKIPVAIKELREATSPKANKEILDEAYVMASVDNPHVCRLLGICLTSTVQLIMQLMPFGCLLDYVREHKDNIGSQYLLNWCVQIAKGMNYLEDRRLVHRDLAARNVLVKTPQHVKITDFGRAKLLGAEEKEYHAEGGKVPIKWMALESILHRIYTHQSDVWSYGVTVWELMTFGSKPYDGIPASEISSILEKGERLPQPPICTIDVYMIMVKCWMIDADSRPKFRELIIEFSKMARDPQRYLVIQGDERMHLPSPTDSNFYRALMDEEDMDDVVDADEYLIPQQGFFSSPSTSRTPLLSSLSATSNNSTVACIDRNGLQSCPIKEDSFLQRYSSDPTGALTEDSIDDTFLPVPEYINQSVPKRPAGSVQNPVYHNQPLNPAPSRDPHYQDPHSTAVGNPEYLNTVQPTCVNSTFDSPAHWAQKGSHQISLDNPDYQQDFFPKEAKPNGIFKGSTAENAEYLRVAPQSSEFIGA
Method: (§1) In order to confirm that the compound represented by formula 1 provided in one aspect of the present invention acts as an allosteric inhibitor against WT and mutant of EGFR, the cell growth inhibitory effect was evaluated in BaF3 cells overexpressing WT and mutant of EGFR.
(§2) More specifically, the cell growth inhibitory ability of the compound of the present invention to the Ba/F3 cell line overexpressing WT and mutant of EGFR was evaluated using CellTiter 96 AQueous Non-Radioactive Cell Proliferation Assay system of Promega, as follows. AQueous Non-Radioactive Cell Proliferation Assay is a method of confirming cell growth inhibitory ability by measuring the degree of color development by reducing MTS (3-(4,5-Dimethylthiazol-2-yl)-5-(3-carboxymethoxyphenyl)-2-(4-sulfophenyl)-2H-tetrazolium) to Formazan by a reductase secreted by mitochondria present in living cells in a cell culture state. The Ba/F3 EGFR WT and Ba/F3 EGFR del19/T790M/C797S (DTC), Ba/F3 EGFR L858R (L), Ba/F3 EGFR L858R/T790M (LT), and Ba/F3 EGFR L858R/T790M/C797S (LTC) mutation cell lines used in the present invention were purchased from the laboratory of Professor Byung-cheol Cho, Yonsei University. All cell lines were cultured in RPMI supplemented with 10% FBS, 1% penicillin-streptomycin and 1 μg/ml of puromycine in a 5% CO2 incubator at 37° C.
(§3) The cell survival inhibitory effect of the compound according to each EGFR mutation was analyzed by the following analysis method.
(§4) BaF3 cells were distributed in a 96-well cell culture plate at the density of 2000˜10000 cells/100 μL/well, and cultured for 24 hours. Thereafter, the concentration of the compound represented by formula 1 provided in one aspect of the present invention was prepared to double the final concentrations of 0.1 nM, 1 nM, 10 nM, 100 nM, 1000 nM and 10000 nM, and the compound was treated to the plate (100 μL/well). The plate was reacted in an incubator at 37° C. for 72 hours. Then, MTS was treated to the plate (20 μL/well) and the plate was incubated at 37° C. for 2 to 4 hours. Finally, after measuring the absorbance at 490 nm using a microplate reader, the relative value compared to 0 nM (% Control) was obtained to confirm the cell growth inhibitory ability of the compound. The measured values were analyzed using Prism program (version 8.0, Graphpad Software, Inc.), and the IC50 value (Inhibition concentration 50), an indicator of the cell growth inhibitory ability of the compound, was calculated.

[2] = target: Ba/F3 EGFR L858R/T790M/C797S (LTC) (Homo sapiens, UniProt P00533, T790M/C797S/L858R, cells depend on it); assay: Cell growth inhibitory ability in Ba/F3 cells overexpressing EGFR L858R/T790M/C797S (MTS, CellTiter 96 AQueous); type: cell-based; conditions: 72 hours, MTS absorbance at 490 nm, read-out: Ba/F3 EGFR triple mutant L858R/T790M/C797S, IC50
Chain of Ba/F3 EGFR L858R/T790M/C797S (LTC) (P00533 whole entry T790M/C797S/L858R): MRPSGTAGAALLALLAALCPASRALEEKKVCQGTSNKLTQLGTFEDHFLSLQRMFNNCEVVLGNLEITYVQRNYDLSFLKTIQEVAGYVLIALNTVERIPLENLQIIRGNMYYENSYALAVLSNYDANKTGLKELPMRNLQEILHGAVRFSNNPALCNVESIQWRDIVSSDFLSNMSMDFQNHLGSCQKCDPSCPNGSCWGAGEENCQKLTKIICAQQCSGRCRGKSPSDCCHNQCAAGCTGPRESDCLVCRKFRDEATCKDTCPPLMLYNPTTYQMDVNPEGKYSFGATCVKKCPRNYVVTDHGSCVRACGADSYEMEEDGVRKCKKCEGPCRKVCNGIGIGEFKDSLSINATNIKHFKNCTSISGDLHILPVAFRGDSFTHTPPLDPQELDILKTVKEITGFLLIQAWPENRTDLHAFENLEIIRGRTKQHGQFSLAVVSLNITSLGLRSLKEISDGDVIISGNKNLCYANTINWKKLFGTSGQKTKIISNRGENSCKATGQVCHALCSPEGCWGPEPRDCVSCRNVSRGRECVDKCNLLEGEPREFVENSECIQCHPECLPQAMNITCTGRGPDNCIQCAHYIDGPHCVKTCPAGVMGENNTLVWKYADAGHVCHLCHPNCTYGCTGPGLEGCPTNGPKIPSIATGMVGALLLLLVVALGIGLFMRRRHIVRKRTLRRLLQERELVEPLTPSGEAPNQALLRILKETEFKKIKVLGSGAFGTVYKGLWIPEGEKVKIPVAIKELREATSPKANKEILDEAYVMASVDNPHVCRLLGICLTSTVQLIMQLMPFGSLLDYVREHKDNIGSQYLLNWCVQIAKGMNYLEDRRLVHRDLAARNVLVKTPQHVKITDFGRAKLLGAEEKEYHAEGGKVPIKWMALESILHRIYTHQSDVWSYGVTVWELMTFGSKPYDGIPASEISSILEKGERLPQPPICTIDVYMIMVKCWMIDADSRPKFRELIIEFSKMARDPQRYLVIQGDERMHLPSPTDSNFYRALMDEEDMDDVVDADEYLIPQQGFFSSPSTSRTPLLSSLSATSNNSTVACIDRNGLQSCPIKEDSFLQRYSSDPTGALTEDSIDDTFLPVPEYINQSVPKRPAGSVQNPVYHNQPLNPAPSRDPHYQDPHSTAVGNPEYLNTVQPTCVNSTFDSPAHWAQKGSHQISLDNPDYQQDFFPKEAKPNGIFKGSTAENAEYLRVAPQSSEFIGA
Method: as §1, §2, §3, §4

Row | GI50 [1] [nM] | GI50 [2] [nM] | Compound
1 | > 200 | > 200 | NC1CCN(c2ccc(-c3cc(OC(F)(F)F)cc(C(=O)N[C@@H](c4cc5ccccc5[nH]4)c4cc(F)ccc4O)c3)cc2)CC1 [Example 11, (R)-4′-(4-aminopiperidine-1-yl)-N-((5-fluoro-2-hydroxyphenyl)(1H-indole-2-yl)methyl)-5-(trifluoromethoxy)-[1,1′-biphenyl]-3-carboxamide]
2 | 30 to 200 | > 200 | COc1ccc(F)cc1[C@@H](NC(=O)c1cc(OC(F)(F)F)cc(-c2ccc(N3CCC(N)CC3)cc2)c1)c1cc2ccccc2[nH]1 [Example 12, (R)-4′-(4-aminopiperidine-1-yl)-N-((5-fluoro-2-methoxyphenyl)(1H-indole-2-yl)methyl)-5-(trifluoromethoxy)-[1,1′-biphenyl]-3-carboxamide]
3 | > 200 | > 200 | NC1CCN(c2ccc(-c3cc(C(=O)N[C@@H](c4cc5ccccc5[nH]4)c4cc(F)ccc4O)cc(-n4ccnc4)c3)cc2)CC1 [Example 13, (R)-4′-(4-aminopiperidine-1-yl)-N-((5-fluoro-2-hydroxyphenyl)(1H-indole-2-yl)methyl)-5-(1H-imidazole-1-yl)-[1,1′-biphenyl]-3-carboxamide]
4 | 30 to 200 | > 200 | NC1CCN(c2ccc(-c3cc(C(=O)N[C@@H](c4cc5ccccc5[nH]4)c4cc(F)ccc4O)ccn3)cc2)CC1 [Example 14, (R)-2-(4-(4-aminopiperidine-1-yl)phenyl)-N-((5-fluoro-2-hydroxyphenyl)(1H-indole-2-yl)methyl)isonicotinamide]
5 | > 200 | > 200 | COc1ccc(F)cc1[C@@H](NC(=O)c1ccnc(-c2ccc(N3CCC(N)CC3)cc2)c1)c1cc2ccccc2[nH]1 [Example 15, (R)-2-(4-(4-aminopiperidine-1-yl)phenyl)-N-((5-fluoro-2-methoxyphenyl)(1H-indole-2-yl)methyl)isonicotinamide]
6 | < 30 | 30 to 200 | Cc1cc(C(=O)N[C@@H](c2cc3ccccc3[nH]2)c2cc(F)ccc2O)cc(-c2cnc(N3CCC(N)CC3)nc2)c1 [Example 16, (R)-3-(2-(4-aminopiperidine-1-yl)pyrimidine-5-yl)-N-((5-fluoro-2-hydroxyphenyl)(1H-indole-2-yl)methyl)-5-methylbenzamide]
7 | < 30 | < 30 | Cc1cc(C(=O)N[C@@H](c2cc3ccccc3[nH]2)c2cc(F)ccc2O)cc(-c2ccc(N3CCC(N)CC3)cn2)c1 [Example 17, (R)-3-(5-(4-aminopiperidine-1-yl)pyridine-2-yl)-N-((5-fluoro-2-hydroxyphenyl)(1H-indole-2-yl)methyl)-5-methylbenzamide]
8 | < 30 | < 30 | Cc1cc(C(=O)N[C@@H](c2cc3ccccc3[nH]2)c2cc(F)ccc2O)cc(-c2cnc(N3CCC(N)CC3)cn2)c1 [Example 18, (R)-3-(5-(4-aminopiperidine-1-yl)pyrazine-2-yl)-N-((5-fluoro-2-hydroxyphenyl)(1H-indole-2-yl)methyl)-5-methylbenzamide]
9 | < 30 | < 30 | Cc1cc(C(=O)N[C@@H](c2cc3ccccc3[nH]2)c2cc(F)ccc2O)cc(-c2ccc(N3CCC(N)CC3)nc2)c1 [Example 19, (R)-3-(6-(4-aminopiperidine-1-yl)pyridine-3-yl)-N-((5-fluoro-2-hydroxyphenyl)(1H-indole-2-yl)methyl)-5-methylbenzamide]
10 | 30 to 200 | > 200 | Cc1cc(C(=O)N[C@@H](c2cc3ccccc3[nH]2)c2cc(F)ccc2O)cc(-c2ccc(N3CCC(N)CC3)nn2)c1 [Example 20, (R)-3-(6-(4-aminopiperidine-1-yl)pyridazine-3-yl)-N-((5-fluoro-2-hydroxyphenyl)(1H-indole-2-yl)methyl)-5-methylbenzamide]
11 | < 30 | < 30 | Cc1cc(C(=O)N[C@@H](c2cc3ccccc3[nH]2)c2cc(F)ccc2O)cc(-c2ncc(N3CCC(N)CC3)cn2)c1 [Example 21, (R)-3-(5-(4-aminopiperidine-1-yl)pyrimidine-2-yl)-N-((5-fluoro-2-hydroxyphenyl)(1H-indole-2-yl)methyl)-5-methylbenzamide]
12 | < 30 | < 30 | Cc1cc(C(=O)N[C@@H](c2cc3ccccc3[nH]2)c2cc(F)ccc2O)cc(-c2ccc(N3CCC(N)CC3)c(F)c2)c1 [Example 22, (R)-4′-(4-aminopiperidine-1-yl)-3′-fluoro-N-((5-fluoro-2-hydroxyphenyl)(1H-indole-2-yl)methyl)-5-methyl-[1,1′-biphenyl]-3-carboxamide]
13 | < 30 | < 30 | Cc1cc(C(=O)N[C@@H](c2cc3ccccc3[nH]2)c2cc(F)ccc2O)cc(-c2ccc(N3CCC(N)CC3)cc2C)c1 [Example 23, (R)-4′-(4-aminopiperidine-1-yl)-N-((5-fluoro-2-hydroxyphenyl)(1H-indole-2-yl)methyl)-2′,5-dimethyl-[1,1′-biphenyl]-3-carboxamide]
14 | < 30 | < 30 | Cc1cc(C(=O)N[C@@H](c2cc3ccccc3[nH]2)c2cc(F)ccc2O)cc(-c2ccc(N3CCC(N)CC3)cc2F)c1 [Example 24, (R)-4′-(4-aminopiperidine-1-yl)-2′-fluoro-N-((5-fluoro-2-hydroxyphenyl)(1H-indole-2-yl)methyl)-5-methyl-[1,1′-biphenyl]-3-carboxamide]
15 | < 30 | < 30 | Cc1cc(C(=O)N[C@@H](c2cc3ccccc3[nH]2)c2cc(F)ccc2O)cc(-c2ccc(N3CCC(N)CC3)c(C)c2)c1 [Example 25, (R)-4′-(4-aminopiperidine-1-yl)-N-((5-fluoro-2-hydroxyphenyl)(1H-indole-2-yl)methyl)-3′,5-dimethyl-[1,1′-biphenyl]-3-carboxamide]
16 | < 30 | 30 to 200 | Cc1cc(C(=O)N[C@@H](c2cc3ccc(F)cc3[nH]2)c2cc(F)ccc2O)cc(-c2ccc(N3CCC(N)CC3)cc2)c1 [Example 26, (R)-4′-(4-aminopiperidine-1-yl)-N-((6-fluoro-1H-indole-2-yl)(5-fluoro-2-hydroxyphenyl)methyl)-5-methyl-[1,1′-biphenyl]-3-carboxamide]
17 | 30 to 200 | > 200 | Cc1cc(C(=O)N[C@@H](c2cc3ccc(Cl)cc3[nH]2)c2cc(F)ccc2O)cc(-c2ccc(N3CCC(N)CC3)cc2)c1 [Example 27, (R)-4′-(4-aminopiperidine-1-yl)-N-((6-chloro-1H-indole-2-yl)(5-fluoro-2-hydroxyphenyl)methyl)-5-methyl-[1,1′-biphenyl]-3-carboxamide]
18 | > 200 | > 200 | Cc1c(C(=O)N[C@@H](c2cc3ccccc3[nH]2)c2cc(F)ccc2O)cccc1-c1ccc(N2CCC(N)CC2)cc1 [Example 30, (R)-4′-(4-aminopiperidine-1-yl)-N-((5-fluoro-2-hydroxyphenyl) (1H-indole-2-yl)methyl)-2-methyl-[1,1′-biphenyl]-3-carboxamide]
19 | > 200 | > 200 | Cc1cc(C(=O)N[C@H](c2cc3ccccc3[nH]2)c2cc(F)ccc2O)cc(-c2ccc(N3CCC(N)CC3)cc2)c1 [Example 31, (S)-4′-(4-aminopiperidine-1-yl)-N-((5-fluoro-2-hydroxyphenyl)(1H-indole-2-yl)methyl)-5-methyl-[1, l′-biphenyl]-3-carboxamide]
